Legend:
[1] = system: panel of human tumor cell lines (A431, MCF-7, A375, HCT-15, SW480, CaCo-2, DLD-1); experiment: MTT cytotoxicity, comparison over the Table 1 panel; type: cell-based; details: average over seven cell lines of Table 1
Method: (§1) After 24 h, the medium was removed and replaced with a fresh one containing the compound to be studied, at the appropriate concentration, dissolved in 0.9% sodium chloride solution just before use. Triplicate cultures were established for each treatment. After 72 h, each well was treated with […] of a 5 mg mL^−1 MTT saline solution and, after 5 h of incubation, 100 μL of a sodium dodecylsulfate (SDS) solution in 0.01 M HCl were added. After an overnight incubation, the inhibition of cell growth induced by the tested complexes was determined by measuring the absorbance of each well at 570 nm using a BioRad 680 microplate reader. Mean absorbance for each drug dose was expressed as percentage of the control and plotted vs. drug concentration. Dose-response curves were fitted and IC50 values were calculated with four parameter logistic model (4PL).
The cytotoxicity was evaluated by means of the MTT test for 72 h treatment with increasing concentrations of the tested compounds.

[2] = system: 2008/C13*, LoVo/LoVo-OXP, LoVo MDR; experiment: MTT cytotoxicity, comparison over the Table 2 cell lines; type: cell-based, human; details: 2008 ovarian and LoVo colon sensitive cells
Method: as §1
A LoVo cell line retaining a multidrug resistance phenotype was also considered (LoVo MDR). Cross-resistance profiles were evaluated by means of the resistance factor (RF), which is defined as the ratio between the IC50 value for the resistant cells and that arising from the sensitive cells (Table 2).

Compound	average cytotoxic activity compared with reference drugs [1]	cytotoxic activity towards sensitive lines compared with reference drugs [2]
O=C1[O][Pt]2([NH][C@H]3CC[C@H](CC3)[NH]2)[O]C1=O [Compound 3, [SP-4-2-(cis)]-(1,4,cyclohexanediamine-N,N′)[ethanedioato(2)-O,O^1]platinum]	lower than that of oxaliplatin and comparable to that of compound 2 and cisplatin	less effective than oxaliplatin and cisplatin towards ovarian sensitive cell line and rather similar to cisplatin against LoVo colon cancer cells
O=C([O][Pt]1([Cl])([Cl])([O]C(=O)C(Cl)Cl)[NH][C@H]2CC[C@H](CC2)[NH]1)C(Cl)Cl [Compound 5, (OC-6-33)-dichloro(cis-1,4-cyclohexanediamine-N,N′)bisdichloroacetateplatinum]	rather similar to oxaliplatin	better than cisplatin and similar to oxaliplatin
O=C1[O][Pt]2([NH]C3CCC(CC3)[NH]2)[O]C(=O)C12CCC2 [Compound 6, [SP-4-2-(cis)]-(1,4-cyclohexanediamine-N,N′)[cyclobutane-1,1-dicarboxylate-O,O′]platinum]	lower than oxaliplatin and cisplatin	less effective than oxaliplatin and cisplatin
